# Laboratory results as given in patent US6867305B2, “Synthesis of epothilones, intermediates thereto and analogues thereof” (Sloan-Kettering Institute for Cancer Research, priority 1996, dated 2005).
# Like-named read-outs stand apart in the source and are kept apart here.
# Legend:
# [1] = test system: CCRF-CEM human T-cell acute lymphoblastic leukemia cells; test: Tumor cell growth inhibition in vitro (XTT, 72 h); type: cell-based; settings: CCRF-CEM; for IC50: 72 h incubation
# Procedure: (§1) The fresh medium containing each drug was replenished every 7-14 days. […] In each case ,the drug-exposed cells were resuspended in fresh media for a minimum of 4 days before the experiments for the cell-growth inhibition was carried out.
# (§2) The cells were cultured at an initial density of 2-5×10^4 cells per ml. They were maintained in a 5% CO2-humidified atmosphere at 37° C. in RPMI mediun 1640 (GIBCO/BRL) containing penicillin (100 units/ml), streptomycin (100 μg/ml) (GIBCO/BRL), and 5% heat-inactivated fetal bovine serum. For solid tumor cells growing in a monolayer (such as MCF-7/Adr), cytotoxicitiy of the drug was determined in 96-well microtiter plates by using the sulforhodamine B method as described by Skehan et al (23) for measuring the cellular protein content. For cells that were grown in suspension (such as CCRF-CEM and its sublines), cytotoxicitiy was measured by using the 2,-3-bis(2-methoxy-4-nitro-5-sulfophenyl)-5carboxanilide)-2H terazodium hydroxide (XTT)-microculture tetrazonium method (24) in duplicate in 96-well microtiter plates. For both methods, the absorbance of each well was measured with a microplate reader (EL-340, Bio-Tek, Burlington, Vt.). Each run entailed six or seven concentrations of the tested drugs. Dose-effect relationship data were analyzed with the median-effect plot (25) by using a previously described computer program (26).
# [2] = test system: K562 human chronic myeloblastic leukemia; test: Tumor cell growth inhibition in vitro; type: cell-based
# Procedure: as §2, with “They were maintained in a 5% CO2-humidified atmosphere at 37° C. in RPMI mediun 1640 (GIBCO/BRL) containing penicillin (100 units/ml), streptomycin (100 μg/ml) (GIBCO/BRL), and 5% heat-inactivated fetal bovine serum.” left out
# [3] = test system: PC-3 human prostate adenocarcinoma; test: Tumor cell growth inhibition in vitro; type: cell-based
# Procedure: as §2, with “They were maintained in a 5% CO2-humidified atmosphere at 37° C. in RPMI mediun 1640 (GIBCO/BRL) containing penicillin (100 units/ml), streptomycin (100 μg/ml) (GIBCO/BRL), and 5% heat-inactivated fetal bovine serum.” left out
# [4] = test system: HL-60 human promyelocytic leukemia; test: Tumor cell growth inhibition in vitro; type: cell-based
# Procedure: as §2, with “They were maintained in a 5% CO2-humidified atmosphere at 37° C. in RPMI mediun 1640 (GIBCO/BRL) containing penicillin (100 units/ml), streptomycin (100 μg/ml) (GIBCO/BRL), and 5% heat-inactivated fetal bovine serum.” left out
# [5] = test system: MX-1 human mammary carcinoma; test: Tumor cell growth inhibition in vitro; type: cell-based; settings: Homo sapiens, MX1
# Procedure: as §2, with “They were maintained in a 5% CO2-humidified atmosphere at 37° C. in RPMI mediun 1640 (GIBCO/BRL) containing penicillin (100 units/ml), streptomycin (100 μg/ml) (GIBCO/BRL), and 5% heat-inactivated fetal bovine serum.” left out
# [6] = test system: HT-29 human colon adenocarcinoma; test: Tumor cell growth inhibition in vitro; type: cell-based
# Procedure: as §2, with “They were maintained in a 5% CO2-humidified atmosphere at 37° C. in RPMI mediun 1640 (GIBCO/BRL) containing penicillin (100 units/ml), streptomycin (100 μg/ml) (GIBCO/BRL), and 5% heat-inactivated fetal bovine serum.” left out
# [7] = test system: MCF-7 human mammary adenocarcinoma; test: Tumor cell growth inhibition in vitro; type: cell-based
# Procedure: as §2, with “They were maintained in a 5% CO2-humidified atmosphere at 37° C. in RPMI mediun 1640 (GIBCO/BRL) containing penicillin (100 units/ml), streptomycin (100 μg/ml) (GIBCO/BRL), and 5% heat-inactivated fetal bovine serum.” left out
# [8] = test system: SK-OV-3 human ovary adenocarcinoma; test: Tumor cell growth inhibition in vitro; type: cell-based
# Procedure: as §2, with “They were maintained in a 5% CO2-humidified atmosphere at 37° C. in RPMI mediun 1640 (GIBCO/BRL) containing penicillin (100 units/ml), streptomycin (100 μg/ml) (GIBCO/BRL), and 5% heat-inactivated fetal bovine serum.” left out
# [9] = test system: HCT-116 colon carcinoma xenograft; test: Human tumor xenograft in nude mice; type: in vivo; settings: for Therapeutic Effect Rank Order: HCT-116, i.v. infusion
# From the text: Therapeutic efficacy of cancer chemotherapeutic agents varies with various factors including the tumor models used and the dosage of drug and schedules and routes of administration. […] In the present studies, we intended to compare the therapeutic effects of drugs near their maximal tolerated doses by measuring the extent of body-weight decreases and/or lethality.
# (§3) Depending on the tumor type, treatment started on day 10 to day 21 when subcutaneous tumor size reached 35-200 mm^3, except otherwise indicated. Tumor size and body-weight were recorded every other day (Q2D) and, for humane reasons, the animals were sacrificed when tumor size reached ≧10% of body-weight. Each group, including untreated control, consisted of 3-5 animals unless otherwise indicated.
# (§4) Athymic nude mice bearing the nu/nu gene were used for all human tumor xenografts. Outbred, Swiss-background mice were obtained from Charles River Laboratories. Male mice 8 weeks or older weighing 22 g and up were used for most experiments. The drug was administered via the tail vein for 6 hr.-i.v. infusion. Each individual mouse was confined in a perforated Falcon polypropylene tube restrainer for drug administration. Tumor volume was assessed by measuring length×width×height (or width) using a caliper. The programmable Harvard PHD2000 syringe pump (Harvard Apparatus) with multi-track was used for i.v. infusion. […] All animal studies were conducted in accordance with the guidelines of the National Institutes of Health “Guide for the Care and Use of Animals” and the protocol approved by the Memorial Sloan-Kettering Cancer Center's Institutional Animal Care and Use Committee. In keeping with the policy of this committee for the humane treatment of tumor-bearing animals, mice were euthanized when tumors reached ≧10% of their total body weight.
# (§5) Human tumor cells (5×10^6) or tumor tissue (30-50 mg) were implanted s.c. flank in nu/nu mice (Charles River Laboratories, Wilmington, Mass.). When tumor grew to a specified size, treatment was started by every-other day×5 with 6 hr i.v.-infusion, unless otherwise indicated. Tumor volume was measured with calipers in three dimensions (length×width×height or width). Body-weight changes and lethality were monitored every other day.
# DC-3F/ADII = test: Tumor cell growth inhibition in vitro; type: cell-based, hamster; settings: for IC50: DC-3F/ADII; for cross-resistance (fold of resistance vs parent cell line): DC-3F/ADII vs DC-3F
# Procedure: as §1, §2
# [10] = test system: CCRF-CEM leukemia xenograft; settings: for body-weight reduction on day 28: CCRF-CEM-bearing nude mice, 15-azaEpoB 6 mg/kg Q2D×6
# Procedure: Nude mice bearing well established CCRF-CEM tumor xenografts (average tumor size about 400 mm^3) were treated with 30 mg/kg of dEpoB or with 6 mg/kg of 15-azaEpoB, 6 hr-i.v. infusion Q2D×6 as shown in FIG. 37.
# as §3, §4, §5
# [11] = Homo sapiens, MCF7, MCF-7, read-out: IC50
# [12] = HCT-116, dEpoB 30 mg/kg, Taxol 20 mg/kg, Q2Dx51x3, 6-hr i.v. infusion
# [13] = CCRF-CEM, i.v. infusion, FIG. 5
# [14] = CCRF/CEM, dEpoB 40 mg/kg, Taxol 20 mg/kg, Q2Dx4, 6-hr i.v. infusion
# [15] = Homo sapiens, K562, K562, read-out: IC50
SMILES,IC50 [1],IC50 [3],IC50 [4],IC50 [5],IC50 [6],"IC50 [7, 11]",IC50 [8],"Tumor Disappearance [9, 12]",IC50 (DC-3F/ADII),"Therapeutic Effect Rank Order [10, 13]",body-weight reduction on day 28 ([10]; dEpoF 30 mg/kg),"IC50 [2, 15]",IC50 ([7]; MCF-7),Therapeutic Effect Rank Order [9],further results
"CC(=O)O[C@H]1C(=O)[C@@]2(C)[C@H]([C@H](OC(=O)c3ccccc3)[C@]3(O)C[C@H](OC(=O)[C@H](O)[C@@H](NC(=O)c4ccccc4)c4ccccc4)C(C)=C1C3(C)C)[C@]1(OC(C)=O)CO[C@@H]1C[C@@H]2O [Taxol, paclitaxel, reference compound]",1.2 nM,28 nM,1.1 nM,39.4 nM,1.6 nM,2.4 nM,3.8 nM,3/3,20200 nM,–,–,–,–,–,"IC50 ([2]; Homo sapiens, K562, read-out: IC50): 2.9 nM; IC50 (DC-3F/ADII; listed as Paclitaxel): 583 nM"
"C/C(=C\c1csc(C)n1)C1C[C@@H]2O[C@]2(C)CCC[C@H](C)[C@H](O)[C@@H](C)C(=O)C(C)(C)C(O)CC(=O)N1 (stereo partly drawn) [aza-EpoB, aza-epothilone B]",–,42 nM,2.5 nM,2.4 nM,3.2 nM,4.3 nM,16 nM,–,–,dEpoF>>>15-azaEpoB,about 10%,–,–,–,"therapeutic effect on tumor growth ([10]; CCRF-CEM, tumor about 400 mm^3, 15-azaEpoB 6 mg/kg, 6 hr-i.v. infusion Q2D×6): Moderate suppression of tumor growth; IC50 ([1]; Homo sapiens, read-out: IC50): 2.1 nM; IC50 ([2]; K562, listed as 15-aza-EpoB, read-out: IC50): 60 nM; IC50 ([2]; K562, read-out: IC50): 4 nM; cross-resistance (fold of resistance vs parent cell line) (DC-3F/ADII): 274 x; cross-resistance (fold of resistance vs parent cell line) (DC-3F/ADII; listed as 15-aza-EpoB): 33.1 x; IC50 (DC-3F/ADII; listed as 15-aza-EpoB, read-out: IC50): 288 nM; IC50 (DC-3F/ADII; read-out: IC50): 2380 nM"
"C/C1=C/C[C@@H](/C(C)=C/c2csc(C)n2)OC(=O)C[C@H](O)C(C)(C)C(=O)[C@H](C)[C@@H](O)[C@@H](C)CCC1 [dEpoB, 12,13-desoxyepothilone B]",7.4 nM,20.9 nM,3.1 nM,22.1 nM,4.8 nM,4 nM,3.5 nM,1/2,–,–,–,3.6 nM,3.8 nM,"Taxol, CPT-11≈dEpoB, dEpoF","Therapeutic Effect Rank Order ([10]; CCRF-CEM, i.v. infusion (dEpoB vs Taxol)): dEpoB≈Taxol; Lowest Average Tumor Size (T/C) [10, 14]: 0; Tumor Disappearance [10, 14]: 2/2; IC50 ([1]; Homo sapiens, 72 h): 9.5 nM; IC50 ([2]; K562): 6.9 nM; Lowest Average Tumor Size (T/C) [9, 12]: 0"
"C/C1=C/C[C@@H](/C(C)=C/c2csc(CO)n2)OC(=O)C[C@H](O)C(C)(C)C(=O)[C@H](C)[C@@H](O)[C@@H](C)CCC1 [dEpoF, 12,13-Desoxyepothilone F]",2.7 nM,11.9 nM,0.7 nM,4.2 nM,1.4 nM,6.9 nM,5.1 nM,–,18.1 nM,dEpoF>>>15-azaEpoB,about 10%,2.1 nM,10 nM,"Taxol, CPT-11≈dEpoB, dEpoF","tumor free mice on day 28 ([10]; CCRF-CEM, dEpoF 30 mg/kg, 6 hr-i.v. infusion Q2D×6): one of three mice was tumor free; potency relative to dEpoB (times less potent) [1]: slightly less potent than dEpoB; IC50 (DC-3F/ADII; Mesocricetus auratus, DC3F): 22.3 nM"
